In article PMC5584973, “Characterization of novel bangle lectin from Photorhabdus asymbiotica with dual sugar-binding specificity and its effect on host immunity” (PLoS Pathogens, 2017):

Tests used:
G. mellonella haemolymph = assay: Antimicrobial activity of insect haemolymph against E. coli K12; design: species or system Galleria mellonella; settings: 320 μg protein
Description: (§1) Larvae of the greater wax moth, Galleria mellonella, were reared on an artificial diet at 30 ± 1°C in constant darkness. Haemolymph was collected from the seventh instar larvae by cutting a proleg and pooling the haemolymph into a tube containing phenylthiourea (1 mg/ml in PBS; haemolymph mixed with phenylthiourea in the ratio 9:1 [v/v]) or used directly for the determination of phenoloxidase activity.
(§2) The antimicrobial activity of human sera and insect haemolymph was measured luminometrically using the bioluminescent Gram-negative bacteria Escherichia coli K12 [59]. We have modified previously published protocol to measure the effect of PHL [60]. […] After treatment, 120 μl of bacteria working solution containing 100,000 E. coli K12 cells in PBS (pH 7.0) was added to the reaction well and the luminescence signal was recorded with a Chameleon V luminometer (Hidex, Finland) in counts per second (CPS). Reaction wells with PHL, BSA or PBS in an 80 μl volume of the same concentrations and pH as above were measured with E. coli K12 in each experiment as viability controls, not affected by human serum nor haemolymph. The luminescence produced by E. coli K12 corresponds to the bacterial viability. The antimicrobial effect of human sera and haemolymph was determined as time elapsed until the luminescence signal decreased under 1000 or 5000 CPS, respectively. […]

[1] = test system: phenoloxidase (PO) in haemolymph of G. mellonella; assay: Phenoloxidase activity in insect haemolymph; format: biochemical, Galleria mellonella; settings: G. mellonella haemolymph; 475 μg for BSA, PLL
Description: as §1
PO activity was measured according to previously published studies. Haemolymph of G. mellonella (5 μl) was collected directly to 95 μl of PHL (475 μg in PBS for all experiments except dose-dependence assay where different dilutions of PHL were used), PLL (475 μg in PBS), BSA (475 μg in PBS) or PBS (pH 7.4) and incubated for 10 min at room temperature. After incubation, 40 μl of reaction mixture was transported to the microplate well and 160 μl of 3,4-dihydroxy-DL-phenylalanine (3 mg/ml in PBS) was added as substrate. The reaction was allowed to proceed for 30 min, and absorbance was measured in 2-min intervals at 492 nm with a Sunrise reader (Tecan, Switzerland). PO activity was expressed as linear increase in absorbance per minute. For the inhibition assay, PHL was pre-incubated with 0.2M L-Fuc or Me-α-L-Fuc for 10 min at room temperature prior to mixing with haemolymph.

whole human blood = assay: Oxidative burst (ROS production) in human blood; format: cell-based; settings: 125 μg protein
Description: ROS production was measured according to previously published work in whole human blood within 15 min of sampling. The fresh human blood (2 μl diluted 40x in HBSS; 0.137 M NaCl, 5.4 mM KCl, 0.44 mM KH2PO4, 0.25 mM Na2HPO4, 4.2 mM NaHCO3, 1.0 mM MgSO4, 1.3 mM CaCl2, 5.55 mM glucose; pH 7.4) was mixed with 25 μl of PHL (125 μg in PBS for all experiments except dose-dependence assay where different dilutions of PHL were used), BSA (125 μg in PBS) or PBS (pH 7.4) and incubated for 10 min at 37°C or room temperature. After incubation, 25 μl of the luminophore (10 mM luminol) and 25 μl of activator zymosan A (2.5 mg/ml in HBSS) was added to activate ROS production in phagocytes. To detect the constitutive production of ROS, zymosan was replaced with the same volume of HBSS. Luminescence was recorded with a Chameleon V luminometer (Hidex, Finland) for two hours at 37°C or room temperature, and the integrals of reactions were compared. Results from experimental treatments (incubation of blood with PHL and BSA) were normalised to the integral of the oxidative response in the respective blood sample with PBS.

human serum = assay: Antimicrobial activity of human serum against E. coli K12; settings: 320 μg protein
Description: Samples of human blood were collected from healthy donors to tubes without anticoagulant and anonymized prior to experiments. The blood was allowed to clot for at least 10 min, centrifuged at 2,000 g, 10 min to remove the clot and the collected serum was used immediately for subsequent analysis. The serum was analysed within two hours after blood collection in all experiments.
as §2

Q: Which “effect on antimicrobial activity against E. coli K12” value (G. mellonella haemolymph) does the source give for bovine serum albumin [BSA] here?
A: not able to block the effect of antimicrobial factors

Q: What about the “effect on PO activity (melanisation)” value [1] of the same substance?
A: did not have any effect

Q: What about the “ROS production (integral of luminescence)” value (whole human blood; blood challenged with activator zymosan A) of the same substance?
A: 5.3±1.3 x 10^6 CPS*min

Q: And the “constitutive ROS production (integral of luminescence)” value (whole human blood; whole human blood A/B/O, without activator, 2 hours)?
A: 26.9±16.9 x 10^3 CPS*min

Q: And the “effect on antimicrobial activity against E. coli K12” value (human serum)?
A: not able to block the effect of antimicrobial factors
